Read-outs that look alike come from different tables or passages of the source.
What was measured:
Ctenocephalides felis [1] = assay: In vitro contact test with fleas; settings: read-out: insecticidal activity; for pest or weed control at 1 µg/cm2, 1 µg/cm2: dose 1 μg/cm^2, dead or moribund fleas after 48 h; for pest or weed control at 0.2 µg/cm2, 0.2 µg/cm2: dose 0.2 μg/cm^2, dead or moribund fleas after 48 h
How it was run: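 Activity is the percentage of fleas dead or moribund at 48 h, judged by immobility or uncoordinated movement after tapping. Tubes were coated by evaporating acetone solutions (900 ppm gives 5 μg/cm^2), then held 5-10 adult fleas of both sexes at room temperature and ambient humidity.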

Dermacentor variabilis = assay: In vitro contact test with adult hard ticks (Dermacentor variabilis); settings: read-out: acaricidal activity; for pest or weed control at 0.2 µg/cm2, 0.2 µg/cm2: dose 0.2 μg/cm^2, 48 h; for pest or weed control at 1 µg/cm2, 1 µg/cm2: dose 1 μg/cm^2, 48 h
How it was run: (§1)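 Acaricidal activity = % ticks dead or moribund after 48 h contact with acetone-deposited compound on vial walls (e.g., 900 ppm solution → 5 μg/cm^2). Ambient conditions for R. sanguineus, 21° C./85% rel. hum. for other species; heat challenge at 45-50° C. separated climbers from moribund ticks.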

Ixodes ricinus = assay: In vitro contact test with adult hard ticks (Ixodes ricinus); settings: read-out: acaricidal activity; for pest or weed control at 5 µg/cm2, 5 µg/cm2: dose 5 μg/cm^2, 48 h
Procedure: In Vitro Contact Tests with Adult Hard Ticks
In vitro contact tests with ticks were conducted with adult males and females of Rhipicephalus sanguineus, Ixodes ricinus, or Dermacentor variabilis, or nymphs of Amblyomma americanum.
For the coating of the test vials, the test substance was dissolved and diluted in acetone p.a. to the desired concentration. The solution was then homogeneously applied to the inner wall and base of a glass vial by turning and rocking on an orbital shaker until complete evaporation of the solvent. For example, with a 900 ppm solution of test substance, an area-based dose of 5 μg/cm^2 was achieved.
After the solvent was completely evaporated, 5-10 adult ticks were put in each coated test vial, which was then sealed with a perforated plastic lid and incubated in a horizontal position in the dark at room temperature and ambient humidity (Rhipicephalus sanguineus) or in a climate-controlled cabinet (Ixodes ricinus, Dermacentor variabilis, Amblyomma americanum [21° C., 85% rel. hum.]). Acaricidal activity against the respective tick species was determined after 48 h. For this, ticks were collected to the base of the test vial by gentle knocking, and test vials were then incubated on a hotplate at 45-50° C. for no longer than 5 min. Ticks which remained motionless on the base of the test vial or moved uncoordinated without deliberately climbing up to avoid the heat were considered dead or moribund, respectively.
A substance was judged to have good acaricidal activity against the respective tick species when at least 80% of ticks were found dead or moribund at a dose of the substance of g/cm^2. An acaricidal activity of 100% means all ticks were dead or moribund. An acaricidal activity of 0% means none of the ticks was found dead or moribund.

Rhipicephalus sanguineus = assay: In vitro contact test with adult hard ticks (Rhipicephalus sanguineus); settings: read-out: acaricidal activity; for pest or weed control at 0.2 µg/cm2, 0.2 µg/cm2: dose 0.2 μg/cm^2, 48 h; for pest or weed control at 1 µg/cm2, 1 µg/cm2: dose 1 μg/cm^2, 48 h; for pest or weed control at 0.04 µg/cm2, 0.04 µg/cm2: dose 0.04 μg/cm^2, 48 h
How it was run: as §1

[2] = tested on: Rhipicephalus (Boophilus) microplus; assay: In vitro injection test with Rhipicephalus (Boophilus) microplus (BOOPMI Inj); settings: 168 h, laid fertile eggs after 7 days, read-out: acaricidal activity; for pest or weed control at 0.00016 mg: dose 0.16 μg/animal injected; for pest or weed control at 0.0008 mg: dose 0.8 μg/animal injected; for pest or weed control at 32 ng: dose 0.032 μg/animal injected
How it was run: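 Five engorged adult females each get a 1 μl abdominal injection of compound dissolved and diluted in DMSO. Kept 7 days at 28° C./85% rel. hum.; percent activity rates egg laying and egg fertility (0% all fertile, 100% none laid or infertile).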

Ctenocephalides felis [3] = assay: Ctenocephalides felis in-vitro feeding test with fleas (CTECFE oral); settings: 48 hours, read-out: insecticidal feeding activity; for pest or weed control at 0.032 ppm: dose 0.032 ppm in citrated cattle blood; for pest or weed control at 0.16 ppm: dose 0.16 ppm in citrated cattle blood; for pest or weed control at 0.8 ppm: dose 0.8 ppm in citrated cattle blood; for pest or weed control at 4 ppm: dose 4 ppm in citrated cattle blood
How it was run: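 Scored as percent fleas killed (0–100%) 48 hours after feeding began. Compound, dissolved in DMSO and diluted into citrated cattle blood, was offered via a parafilm membrane to roughly 20 adult male and female C. felis at about 37° C.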

Spodoptera litura = assay: Insecticidal testing against common cutworm; type: in vivo; settings: foliar, 144 h, concentration 100 ppm, cabbage leaf dip, second-stage larvae, after 6 days, read-out: pesticidal rate
Text: Insecticidal Testing Against Common Cutworm (Spodoptera litura)

Plutella xylostella = assay: Insecticidal testing against diamondback moth; type: in vivo; settings: foliar, 144 h, concentration 100 ppm, cabbage leaf dip, third-stage larvae, after 6 days, read-out: pesticidal rate
Text: Insecticidal Testing Against Diamondback Moth (Plutella xylostella)

Laodelphax striatellus = assay: Insecticidal testing against small brown planthopper; type: in vivo; settings: 144 h, concentration 100 ppm, sprayed rice seedlings, after 6 days, read-out: pesticidal rate
How it was run: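 Acetone solution of compound at a set concentration sprayed onto rice seedlings, air-dried, then exposed to 10 planthoppers (one group). Held at 25° C; survival rate recorded after 6 days.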

Amblyomma americanum = assay: In vitro contact test with hard ticks (Amblyomma americanum nymphs); settings: read-out: acaricidal activity; for pest or weed control at 0.2 µg/cm2, 0.2 µg/cm2: dose 0.2 μg/cm^2, 48 h; for pest or weed control at 1 µg/cm2, 1 µg/cm2: dose 1 μg/cm^2, 48 h
How it was run: as §1

Row | Compound | pest or weed control at 1 µg/cm2, 1 µg/cm2 (Ctenocephalides felis [1]) | pest or weed control at 0.2 µg/cm2, 0.2 µg/cm2 (Dermacentor variabilis) | pest or weed control at 1 µg/cm2, 1 µg/cm2 (Dermacentor variabilis) | pest or weed control at 0.2 µg/cm2, 0.2 µg/cm2 (Ixodes ricinus; dose 0.2 μg/cm^2, 48 h) | pest or weed control at 1 µg/cm2, 1 µg/cm2 (Ixodes ricinus; dose 1 μg/cm^2, 48 h) | pest or weed control at 5 µg/cm2, 5 µg/cm2 (Ixodes ricinus) | pest or weed control at 0.2 µg/cm2, 0.2 µg/cm2 (Rhipicephalus sanguineus) | pest or weed control at 1 µg/cm2, 1 µg/cm2 (Rhipicephalus sanguineus) | pest or weed control at 0.00016 mg [2] | pest or weed control at 0.0008 mg [2] | pest or weed control at 0.032 ppm (Ctenocephalides felis [3]) | pest or weed control at 0.16 ppm (Ctenocephalides felis [3]) | pest or weed control at 0.8 ppm (Ctenocephalides felis [3]) | pest or weed control at 4 ppm (Ctenocephalides felis [3]) | pest or weed control at 100 ppm (Spodoptera litura) | pest or weed control at 100 ppm (Plutella xylostella) | pest or weed control at 100 ppm (Laodelphax striatellus) | pest or weed control at 0.2 µg/cm2, 0.2 µg/cm2 (Ctenocephalides felis [1]) | pest or weed control at 0.2 µg/cm2, 0.2 µg/cm2 (Amblyomma americanum) | pest or weed control at 1 µg/cm2, 1 µg/cm2 (Amblyomma americanum) | further results
1 | O=C(Nc1cccc(C(=O)Nc2c(I)cc(C(F)(C(F)(F)F)C(F)(F)F)cc2C(F)(F)F)c1F)c1ccc(F)cc1 [Compound 63] | 95% | 90% | 90% | 90% | 90% | 90% | 90% | 90% | 100% | 100% | 95% | 95% | 95% | 95% | ≥ 70% | ≥ 70% | ≥ 70% | – | – | – | –
2 | O=C(Nc1cccc(C(=O)Nc2c(I)cc(C(F)(C(F)(F)F)C(F)(F)F)cc2[S+]([O-])C(F)(F)F)c1F)c1ccc(F)cc1 (stereo not drawn) [Compound 65] | 95% | – | – | – | 90% | 90% | 90% | 90% | 100% | 100% | 95% | 95% | 95% | 95% | ≥ 70% | ≥ 70% | ≥ 70% | 95% | 90% | 90% | –
3 | CN(C(=O)c1ccc(F)cc1)c1cccc(C(=O)Nc2c(Cl)cc(C(F)(C(F)(F)F)C(F)(F)F)cc2C(F)(F)F)c1F [Compound 68] | 95% | – | 90% | – | 90% | 90% | 90% | 90% | 100% | 100% | 95% | 95% | 95% | 95% | ≥ 70% | ≥ 70% | ≥ 70% | 95% | – | – | pest or weed control at 0.04 µg/cm2, 0.04 µg/cm2 (Rhipicephalus sanguineus): 90%
4 | CN(C(=O)c1ccc(F)cc1)c1cccc(C(=O)Nc2c(Br)cc(C(F)(C(F)(F)F)C(F)(F)F)cc2OC(F)(F)F)c1F [Compound 72] | 95% | 90% | 90% | 90% | 90% | 90% | 90% | 90% | 100% | 100% | – | – | 95% | 95% | ≥ 70% | ≥ 70% | ≥ 70% | 95% | – | – | pest or weed control at 0.04 µg/cm2, 0.04 µg/cm2 (Rhipicephalus sanguineus): 90%; pest or weed control at 32 ng [2]: 100%
5 | O=C(Nc1cccc(C(=O)Nc2c(I)cc(C(F)(C(F)(F)F)C(F)(F)F)cc2C(F)(F)F)c1F)c1ccc(Cl)c(Cl)c1 [Compound 80] | – | 90% | 90% | – | – | 90% | – | 90% | – | 100% | 95% | 95% | 95% | 95% | ≥ 70% | ≥ 70% | ≥ 70% | – | – | – | –
6 | O=C(Nc1cccc(C(=O)Nc2c(Br)cc(C(F)(C(F)(F)F)C(F)(F)F)cc2OC(F)(F)F)c1F)c1ccc(C(F)(F)F)nc1 [Compound 99, N-(2-fluoro-3-((2-bromo-4-(perfluoropropan-2-yl)-6-(trifluoromethoxy)phenyl)carbamoyl)phenyl)-6-(trifluoromethyl)nicotinamide] | – | 90% | 90% | – | 90% | – | 90% | 90% | 100% | 100% | – | 95% | 95% | 95% | ≥ 70% | ≥ 70% | ≥ 70% | – | – | – | –
7 | O=C(Nc1cccc(C(=O)Nc2c(I)cc(C(F)(C(F)(F)F)C(F)(F)F)cc2C(F)(F)F)c1F)c1ccc(F)nc1 [Compound 116, 6-fluoro-N-(2-fluoro-3-((2-iodo-4-(perfluoropropan-2-yl)-6-(trifluoromethyl)phenyl)carbamoyl)phenyl)nicotinamide] | 95% | – | – | – | – | – | – | 90% | 100% | 100% | 95% | 95% | 95% | 95% | ≥ 70% | ≥ 70% | ≥ 70% | 95% | 90% | 90% | pest or weed control at 0.04 µg/cm2, 0.04 µg/cm2 (Ctenocephalides felis [1]; dose 0.04 μg/cm^2, dead or moribund fleas after 48 h): 95%; pest or weed control at 0.2 µg/cm2, 0.2 µg/cm2 (Ixodes ricinus; 48 h): 90%; pest or weed control at 1 µg/cm2, 1 µg/cm2 (Ixodes ricinus; 48 h): 90%; pest or weed control at 32 ng [2]: 100%; pest or weed control at 0.0064 ppm (Ctenocephalides felis [3]; dose 0.0064 ppm in citrated cattle blood): 95%
8 | O=C(Nc1cccc(C(=O)Nc2c(I)cc(C(F)(C(F)(F)F)C(F)(F)F)cc2OC(F)(F)F)c1F)c1ccc(C(F)(F)F)nc1 [Compound 118, N-(2-fluoro-3-((2-iodo-4-(perfluoropropan-2-yl)-6-(trifluoromethoxy)phenyl)carbamoyl)phenyl)-6-(trifluoromethyl)nicotinamide] | 95% | – | – | 90% | 90% | 90% | 90% | 90% | 100% | 100% | 95% | 95% | 95% | 95% | ≥ 70% | ≥ 70% | ≥ 70% | 95% | 90% | 90% | pest or weed control at 32 ng [2]: 100%

Reference: patent US11696913B2, “Prolonged ectoparasite-controlling agent for animal” (MITSUI CHEMICALS AGRO, INC., priority 2017, dated 2023)
